Results reported in patent publication EP0381422B1, “Tetrahydrobenzimidazole derivatives” (YAMANOUCHI PHARMACEUTICAL CO. LTD., priority 1989, dated 1990).

Tested on: 5-HT3 receptor
Assay: Antagonism against 5-HT3-receptor: inhibition of serotonin-induced Bezold-Jarish (BJ) reflex in anesthetized rats
Assay type: in vivo, Wistar male rats
Experimental: Antagonism Against 5-HT3-Receptor
Nine-week-old Wistar male rats were anesthetized by intravenous injection of 1 g/kg of urethane, and blood pressure and heart rate were measured under artificial respiration. Transient reduction in heart rate and blood pressure induced by intravenous administration of serotonin or 2-methylserotonin which is a selective agonist of 5-HT3 was taken as an index of the reaction via 5-HT3 receptor [Bezold-Jarish reflex; Paintal, A.S., Pysiolo. Rev., Vol. 53, p.
Inhibitory activity of compounds of the present invention on serotonin-induced Bezold-Jarish (BJ) reflex in rats is shown in Table 1.

SMILES	BJ Reflex Inhibitory Activity (ED50; µg/kg, i.v.)
O=C(C1CCc2nc[nH]c2C1)n1c(=O)[nH]c2ccccc21 (centres unmarked) [Example 9, 1-[(4,5,6,7-tetrahydrobenzimidazol-5-yl)carbonyl]-2,3-dihydrobenzimidazol-2-one]	0.80 µg/kg
O=C(C1CCc2nc[nH]c2C1)N1CCc2ccccc21.O=C(O)/C=C/C(=O)O (centres unmarked) [Example 2, 5-[(2,3-Dihydroindol-1-yl)carbonyl]-4,5,6,7-tetrahydrobenzimidazole fumarate]	0.29 µg/kg
